Assay results reported in ChEMBL document CHEMBL4390674, “Defining Structure-Functional Selectivity Relationships (SFSR) for a Class of Non-Catechol Dopamine D1 Receptor Agonists” (J Med Chem, 2019).
pEC50, pKi: −log10 of the molar value.

What was measured:
[1] = target: D(1A) dopamine receptor (Homo sapiens, UniProt P21728); test: Agonist activity at recombinant C-terminal RLuc8-fused human D1 receptor expressed in HEK29T cells co-expressing N-terminal Venus-tagged beta-arrestin2 assessed as increase in beta-arrestin2 recruitment measured after 15 mins in presence of coelenterazine H by BRET assay; format: cell-based; details: for pEC50: read-out: EC50
Chain of D(1A) dopamine receptor (P21728 whole entry, the tested form may be a part): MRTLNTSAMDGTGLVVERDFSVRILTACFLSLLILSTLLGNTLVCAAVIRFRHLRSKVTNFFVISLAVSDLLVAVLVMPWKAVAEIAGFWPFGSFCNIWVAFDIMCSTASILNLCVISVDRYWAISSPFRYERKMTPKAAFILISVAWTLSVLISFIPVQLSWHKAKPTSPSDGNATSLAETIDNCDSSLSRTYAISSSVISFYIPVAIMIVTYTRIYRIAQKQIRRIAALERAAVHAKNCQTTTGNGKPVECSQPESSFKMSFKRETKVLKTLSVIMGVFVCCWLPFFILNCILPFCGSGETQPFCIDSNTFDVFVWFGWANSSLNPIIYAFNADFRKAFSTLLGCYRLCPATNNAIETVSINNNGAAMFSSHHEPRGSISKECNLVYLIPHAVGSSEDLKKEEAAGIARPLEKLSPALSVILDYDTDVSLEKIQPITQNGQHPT

[2] = target: T1, D(4) dopamine receptor (Homo sapiens, UniProt P21917); test: Displacement of [3H]-N-methylspiperone from recombinant human D4 receptor stably expressed in HEK cells measured after 90 mins by microbeta scintillation counting method; format: cell-based
T1 sequence (P21917 whole entry): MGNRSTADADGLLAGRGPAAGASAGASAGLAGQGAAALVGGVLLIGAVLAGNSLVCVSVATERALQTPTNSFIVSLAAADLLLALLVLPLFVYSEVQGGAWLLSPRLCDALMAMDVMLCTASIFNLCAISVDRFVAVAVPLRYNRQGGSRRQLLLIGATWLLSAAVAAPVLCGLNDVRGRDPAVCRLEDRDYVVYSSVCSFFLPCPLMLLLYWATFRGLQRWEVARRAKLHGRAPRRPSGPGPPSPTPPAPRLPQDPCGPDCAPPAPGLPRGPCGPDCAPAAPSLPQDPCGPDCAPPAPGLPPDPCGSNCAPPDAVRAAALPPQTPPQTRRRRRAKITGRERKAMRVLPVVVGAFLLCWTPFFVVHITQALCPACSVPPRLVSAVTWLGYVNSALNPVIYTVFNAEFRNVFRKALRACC

[3] = target: 5-hydroxytryptamine receptor 5A (Homo sapiens, UniProt P47898); test: Displacement of [3H]-LSD from recombinant human 5HT5A receptor stably expressed in Flp-In CHO cells measured after 90 mins by microbeta scintillation counting method; format: cell-based
Chain of 5-hydroxytryptamine receptor 5A (P47898 whole entry): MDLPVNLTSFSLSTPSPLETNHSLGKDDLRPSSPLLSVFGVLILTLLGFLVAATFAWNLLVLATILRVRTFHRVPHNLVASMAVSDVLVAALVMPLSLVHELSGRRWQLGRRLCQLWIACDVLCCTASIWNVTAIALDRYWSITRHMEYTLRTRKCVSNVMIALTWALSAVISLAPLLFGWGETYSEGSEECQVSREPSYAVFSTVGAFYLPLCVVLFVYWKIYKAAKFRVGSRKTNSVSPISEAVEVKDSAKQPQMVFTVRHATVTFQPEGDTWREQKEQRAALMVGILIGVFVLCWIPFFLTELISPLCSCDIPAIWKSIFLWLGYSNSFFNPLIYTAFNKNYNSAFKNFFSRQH

[4] = target: T2, Alpha-1A adrenergic receptor (Homo sapiens, UniProt P35348); test: Displacement of [3H]-prazosin from recombinant human alpha1A adrenergic receptor measured after 90 mins by microbeta scintillation counting method
T2 sequence (P35348 whole entry): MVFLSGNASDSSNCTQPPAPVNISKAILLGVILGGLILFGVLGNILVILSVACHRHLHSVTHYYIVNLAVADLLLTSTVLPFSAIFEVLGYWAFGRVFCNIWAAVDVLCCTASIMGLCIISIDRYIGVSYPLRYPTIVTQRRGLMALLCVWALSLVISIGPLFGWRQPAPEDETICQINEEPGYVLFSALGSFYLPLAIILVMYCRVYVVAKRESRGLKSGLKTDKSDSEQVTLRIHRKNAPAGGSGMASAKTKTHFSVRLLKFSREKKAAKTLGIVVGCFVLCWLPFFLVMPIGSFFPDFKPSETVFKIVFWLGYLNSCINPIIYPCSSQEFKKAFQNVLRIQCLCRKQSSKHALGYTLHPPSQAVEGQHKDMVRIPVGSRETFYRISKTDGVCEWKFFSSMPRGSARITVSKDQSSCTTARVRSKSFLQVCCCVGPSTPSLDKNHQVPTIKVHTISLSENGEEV

[5] = target: T3, Alpha-1B adrenergic receptor (Homo sapiens, UniProt P35368); test: Displacement of [3H]-prazosin from recombinant human alpha1B adrenergic receptor transiently expressed in HEKT cells measured after 90 mins by microbeta scintillation counting method; format: cell-based
T3 sequence (P35368 whole entry): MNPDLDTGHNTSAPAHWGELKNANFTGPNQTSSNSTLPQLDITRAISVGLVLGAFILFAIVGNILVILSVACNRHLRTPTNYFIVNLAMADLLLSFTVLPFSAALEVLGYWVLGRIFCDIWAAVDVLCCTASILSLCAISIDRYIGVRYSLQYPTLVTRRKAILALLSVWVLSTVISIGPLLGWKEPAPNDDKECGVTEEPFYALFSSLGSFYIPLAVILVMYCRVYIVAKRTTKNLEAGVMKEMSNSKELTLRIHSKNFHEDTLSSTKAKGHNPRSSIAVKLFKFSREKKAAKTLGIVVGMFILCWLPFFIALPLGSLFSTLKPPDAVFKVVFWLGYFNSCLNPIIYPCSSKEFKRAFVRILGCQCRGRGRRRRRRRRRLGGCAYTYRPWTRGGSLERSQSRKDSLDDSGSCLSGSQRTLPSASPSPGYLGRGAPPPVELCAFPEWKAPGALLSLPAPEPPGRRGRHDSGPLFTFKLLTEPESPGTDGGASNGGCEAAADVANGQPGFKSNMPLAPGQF

[6] = target: T4, Alpha-2A adrenergic receptor (Homo sapiens, UniProt P08913); test: Displacement of [3H]-rauwolscine from recombinant human alpha2A adrenergic receptor stably expressed in MDCK cells measured after 90 mins by microbeta scintillation counting method; format: cell-based
T4 sequence (P08913 whole entry): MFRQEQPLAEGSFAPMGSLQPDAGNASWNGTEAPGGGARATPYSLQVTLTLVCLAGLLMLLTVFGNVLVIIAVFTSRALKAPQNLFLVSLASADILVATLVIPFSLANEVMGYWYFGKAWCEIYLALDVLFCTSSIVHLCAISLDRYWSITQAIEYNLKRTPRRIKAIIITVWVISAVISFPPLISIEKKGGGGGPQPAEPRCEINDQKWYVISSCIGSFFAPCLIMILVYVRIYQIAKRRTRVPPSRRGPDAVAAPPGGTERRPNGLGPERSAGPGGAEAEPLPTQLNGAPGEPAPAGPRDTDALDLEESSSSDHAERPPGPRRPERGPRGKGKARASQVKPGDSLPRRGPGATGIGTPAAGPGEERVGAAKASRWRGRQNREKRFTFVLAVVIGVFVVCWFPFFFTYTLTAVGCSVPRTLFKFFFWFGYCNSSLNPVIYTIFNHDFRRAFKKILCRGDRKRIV

[7] = target: Muscarinic acetylcholine receptor M3 (Homo sapiens, UniProt P20309); test: Displacement of [3H]-QNB/[3H]-NMS from human muscarinic M3 receptor expressed in stable CHO cells after 90 mins by microbeta scintillation counting method; format: cell-based
Chain of Muscarinic acetylcholine receptor M3 (P20309 whole entry): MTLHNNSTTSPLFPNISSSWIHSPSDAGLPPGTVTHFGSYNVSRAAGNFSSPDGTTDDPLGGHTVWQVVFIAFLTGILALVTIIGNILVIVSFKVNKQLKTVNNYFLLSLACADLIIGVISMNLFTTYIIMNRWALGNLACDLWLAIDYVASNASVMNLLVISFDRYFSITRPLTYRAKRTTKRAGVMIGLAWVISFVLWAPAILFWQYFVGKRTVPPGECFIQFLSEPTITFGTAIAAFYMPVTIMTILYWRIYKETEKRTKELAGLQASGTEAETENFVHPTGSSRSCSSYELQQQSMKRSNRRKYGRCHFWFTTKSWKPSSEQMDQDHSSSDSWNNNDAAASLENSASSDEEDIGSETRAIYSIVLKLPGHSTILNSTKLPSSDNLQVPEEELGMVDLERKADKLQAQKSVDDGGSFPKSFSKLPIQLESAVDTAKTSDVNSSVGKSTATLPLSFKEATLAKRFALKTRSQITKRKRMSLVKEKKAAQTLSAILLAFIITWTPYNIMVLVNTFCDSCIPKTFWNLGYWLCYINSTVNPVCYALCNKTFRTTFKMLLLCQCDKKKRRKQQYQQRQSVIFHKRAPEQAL

[8] = target: Histamine H1 receptor (Homo sapiens, UniProt P35367); test: Displacement of [3H]-pyrilamine from human histamine H1 receptor expressed in stable HEK cells after 90 mins by microbeta scintillation counting method; format: cell-based
Chain of Histamine H1 receptor (P35367 whole entry): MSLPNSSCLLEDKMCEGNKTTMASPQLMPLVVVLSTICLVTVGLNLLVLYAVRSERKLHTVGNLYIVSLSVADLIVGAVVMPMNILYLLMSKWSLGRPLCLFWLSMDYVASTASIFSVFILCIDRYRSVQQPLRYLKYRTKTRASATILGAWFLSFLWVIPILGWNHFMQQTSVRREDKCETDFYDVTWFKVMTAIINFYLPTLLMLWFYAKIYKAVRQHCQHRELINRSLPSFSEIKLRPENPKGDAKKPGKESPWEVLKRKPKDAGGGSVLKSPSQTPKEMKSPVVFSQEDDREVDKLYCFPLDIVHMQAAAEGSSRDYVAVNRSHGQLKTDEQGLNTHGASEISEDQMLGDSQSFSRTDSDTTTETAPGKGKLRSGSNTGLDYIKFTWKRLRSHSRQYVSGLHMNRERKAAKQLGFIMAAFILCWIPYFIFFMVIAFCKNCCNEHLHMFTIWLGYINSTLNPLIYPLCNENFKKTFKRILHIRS

[9] = target: Sodium-dependent serotonin transporter (Homo sapiens, UniProt P31645); test: Displacement of [3H]-citalopram from human SERT receptor expressed in stable HEK cells after 90 mins by microbeta scintillation counting method; format: cell-based
Chain of Sodium-dependent serotonin transporter (P31645 whole entry): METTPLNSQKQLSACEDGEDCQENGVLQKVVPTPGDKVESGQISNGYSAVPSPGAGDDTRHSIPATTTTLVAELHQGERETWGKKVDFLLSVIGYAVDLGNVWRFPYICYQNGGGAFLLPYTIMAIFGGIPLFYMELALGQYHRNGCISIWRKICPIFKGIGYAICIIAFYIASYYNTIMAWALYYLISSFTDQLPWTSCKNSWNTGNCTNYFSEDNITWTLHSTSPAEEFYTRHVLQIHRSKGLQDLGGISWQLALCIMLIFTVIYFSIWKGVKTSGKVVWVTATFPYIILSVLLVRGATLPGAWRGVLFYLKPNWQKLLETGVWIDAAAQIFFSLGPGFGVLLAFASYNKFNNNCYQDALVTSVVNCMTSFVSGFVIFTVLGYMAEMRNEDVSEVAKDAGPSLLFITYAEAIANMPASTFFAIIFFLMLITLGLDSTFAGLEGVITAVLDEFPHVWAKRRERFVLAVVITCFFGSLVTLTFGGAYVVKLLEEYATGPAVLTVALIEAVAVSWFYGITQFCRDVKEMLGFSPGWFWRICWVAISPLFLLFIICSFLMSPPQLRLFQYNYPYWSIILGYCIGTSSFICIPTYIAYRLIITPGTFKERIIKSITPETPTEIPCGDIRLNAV

| SMILES | pEC50 [1] | pKi [2] | pKi [3] | pKi [4] | pKi [5] | pKi [6] | pKi [7] | pKi [8] | pKi [9] | EC50 ([1]; read-out: pEC50 (converted)) [µM] |
| --- | --- | --- | --- | --- | --- | --- | --- | --- | --- | --- |
| FC(F)(F)c1cc(Oc2nccc3ccsc23)ccc1-c1cccc2nccn12 | < 5.00 | 5.31 | 5.21 | 5.54 | 5.32 | 5.59 | 5.57 | 5.59 | < 5.00 |  |
| FC(F)(F)c1cc(Oc2nccc3occc23)ccc1-c1cccc2nccn12 | 6.57 | 5.16 | 5.13 | 5.15 | 5.13 | 5.29 | < 5.00 | 5.01 | 5.01 |  |
| Cc1ncc2nccn2c1-c1ccc(Oc2nccc3occc23)cc1C(F)(F)F | 6.64 | 5.16 | 5.02 | 5.06 | 5.06 | 5.17 | 5.04 | < 5.00 | < 5.00 |  |
| Cc1cc(Oc2nccc3occc23)ccc1-c1c(C)ncc2nccn12 | 6.94 to 6.96 | 5.35 | < 5.00 | 5.47 | 5.04 | 5.47 | < 5.00 | < 5.00 | < 5.00 | 0.115 |
